Results from the supplement of paper PMC11061612.

How the values were obtained:
Assay in all cases: combination Emax (second highest fraction inhibited in the dose matrix, 72 h); higher = more inhibition; extreme values may be limits of the assay
[1] = test system: MG-63 (Osteosarcoma)
Procedure, shortened: (§1)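 Bliss excess equals the observed combination effect minus the expected value EA + EB − EA·EB, where EA and EB are the effects of each agent alone. Combination Emax is the second-highest inhibition within the matrix. Inhibition was scaled from CellTiter-Glo 2.0 luminescence, with 0 set by vehicle wells and 1 by blank wells, after 72 hours of two-drug dosing of cells plated in 1536-well plates.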

[2] = test system: OCI-M1 (Acute Myeloid Leukemia)
Procedure, shortened: as §1

[3] = test system: RPMI-8402 (T-Lymphoblastic Leukemia)
Procedure, shortened: as §1

[4] = test system: HT-144 (Melanoma)
Procedure, shortened: as §1

[5] = test system: A375 (Melanoma)
Procedure, shortened: as §1

[6] = test system: C2BBe1 (Colorectal Carcinoma)
Procedure, shortened: as §1

[7] = test system: KNS-62 (Squamous Cell Lung Carcinoma)
Procedure, shortened: as §1

[8] = test system: DK-MG (Glioblastoma)
Procedure, shortened: as §1

[9] = test system: RS4-11 (B-Lymphoblastic Leukemia)
Procedure, shortened: as §1

[10] = test system: NCI-H2023 (Non-Small Cell Lung Carcinoma)
Procedure, shortened: as §1

[11] = test system: SCC90 (Head and Neck Carcinoma)
Procedure, shortened: as §1

[12] = test system: NCI-H2452 (Mesothelioma)
Procedure, shortened: as §1

[13] = test system: NCI-H2170 (Squamous Cell Lung Carcinoma)
Procedure, shortened: as §1

[14] = test system: NCI-H1435 (Non-Small Cell Lung Carcinoma)
Procedure, shortened: as §1

[15] = test system: IGROV-1 (Ovarian Carcinoma)
Procedure, shortened: as §1

[16] = test system: MDA-MB-175-VII (Breast Carcinoma)
Procedure, shortened: as §1

[17] = test system: TK (B-Cell Non-Hodgkin's Lymphoma)
Procedure, shortened: as §1

[18] = test system: NCI-H2009 (Lung Adenocarcinoma)
Procedure, shortened: as §1

[19] = test system: JJN-3 (Plasma Cell Myeloma)
Procedure, shortened: as §1

[20] = test system: NCI-H835 (Other Solid Carcinomas)
Procedure, shortened: as §1

Compound | combination Emax [1] | combination Emax [2] | combination Emax [3] | combination Emax [4] | combination Emax [5] | combination Emax [6] | combination Emax [7] | combination Emax [8] | combination Emax [9] | combination Emax [10] | combination Emax [11] | combination Emax [12] | combination Emax [13] | combination Emax [14] | combination Emax [15] | combination Emax [16] | combination Emax [17] | combination Emax [18] | combination Emax [19] | combination Emax [20]
CN(CCO)CC[C@H](CSc1ccccc1)Nc1ccc(S(=O)(=O)NC(=O)c2ccc(N3CCC([C@@H](O)c4ccccc4-c4ccc(Cl)cc4)CC3)cc2)cc1S(=O)(=O)C(F)(F)F [AZD4320] + Cc1cc2ncnn2cc1Nc1ncc2c(n1)n(C1CCOCC1)c(=O)n2C [AZD7648] (first compound max 1 µM, 7x7, partner max 10 µM) | 0.179 | 0.981 | 0.929 | 0.193 | 0.134 | 0.383 | 0.108 | 0.261 | 1 | 0.318 | 0.448 | 0.386 | 0.674 | 0.752 | 0.653 | 0.274 | 0.991 | 0.0699 | 0.473 | –
COc1cc2ncnc(Nc3ccc(F)c(Cl)c3)c2cc1OCCCN1CCOCC1 [Gefitinib] + CC(C)n1c(=O)n(C)c2cnc3cc(F)c(-c4ccc(OCCCN5CCCCC5)nc4)cc3c21 [AZD1390] (first compound max 10 µM, 7x7, partner max 0.3 µM) | 0.202 | 0.0417 | 0.56 | 0.314 | 0.0854 | 0.288 | 0.0888 | 0.248 | 0.168 | 0.151 | 0.699 | 0.306 | 0.784 | 0.114 | – | 0.93 | 0.076 | 0.119 | 0.236 | 0.144
CN(CCO)CC[C@H](CSc1ccccc1)Nc1ccc(S(=O)(=O)NC(=O)c2ccc(N3CCC([C@@H](O)c4ccccc4-c4ccc(Cl)cc4)CC3)cc2)cc1S(=O)(=O)C(F)(F)F [AZD4320] + Nc1ccn([C@@H]2O[C@H](CO)[C@@H](O)C2(F)F)c(=O)n1 [Gemcitabine] (first compound max 1 µM, 7x7, partner max 0.3 µM) | 0.973 | – | 1 | – | 0.996 | – | 0.595 | – | – | 0.884 | – | 0.355 | – | 0.823 | – | 0.824 | – | 0.505 | – | 0.966
Cc1cc2ncnn2cc1Nc1ncc2c(n1)n(C1CCOCC1)c(=O)n2C [AZD7648] + O=C(c1cc(Cc2n[nH]c(=O)c3ccccc23)ccc1F)N1CCN(C(=O)C2CC2)CC1 [Olaparib] (first compound max 10 µM, 7x7, partner max 10 µM) | 0.53 | 0.173 | 0.561 | 0.232 | 0.234 | 0.218 | 0.149 | 0.262 | 0.484 | 0.38 | 0.188 | 0.266 | 0.411 | 0.149 | 0.598 | 0.142 | 0.26 | 0.137 | 0.256 | –
CN(CCO)CC[C@H](CSc1ccccc1)Nc1ccc(S(=O)(=O)NC(=O)c2ccc(N3CCC([C@@H](O)c4ccccc4-c4ccc(Cl)cc4)CC3)cc2)cc1S(=O)(=O)C(F)(F)F [AZD4320] + CCN(CCO)CCCOc1ccc2c(Nc3cc(CC(=O)Nc4cccc(F)c4)[nH]n3)ncnc2c1 [AZD2811] (first compound max 1 µM, 7x7, partner max 1 µM) | 0.86 | 0.988 | 0.999 | 0.245 | 0.506 | 0.224 | 0.207 | 0.255 | 1 | – | 0.715 | 0.364 | 0.627 | 0.699 | 0.266 | 0.413 | 0.993 | 0.224 | 0.904 | –
C[C@@H](c1ccc2nccn2c1)n1nnc2ncc(-c3cnn(C)c3)nc21 [Savolitinib] + Cc1c2c(nn1C)CSCc1cc(n(C)n1)CSc1cc(c3ccccc3c1)OCCCc1c(C(=O)O)n(C)c3c-2c(Cl)ccc13 [AZD5991] (first compound max 1 µM, 7x7, partner max 1 µM) | 0.257 | 0.186 | 0.502 | 0.833 | 0.182 | 0.134 | 0.141 | 0.417 | 0.435 | 0.247 | 0.454 | 0.205 | 0.211 | 0.122 | 0.157 | 0.185 | 0.129 | 0.217 | 0.992 | 0.177
Cc1cc2ncnn2cc1Nc1ncc2c(n1)n(C1CCOCC1)c(=O)n2C [AZD7648] + C=CCn1c(=O)c2cnc(Nc3ccc(N4CCN(C)CC4)cc3)nc2n1-c1cccc(C(C)(C)O)n1 [AZD1775] (first compound max 10 µM, partner max 1 µM) | 0.466 | 0.87 | 1 | 0.611 | 0.592 | 0.345 | 0.314 | 0.43 | 0.952 | 0.703 | 0.905 | 0.663 | 0.741 | 0.355 | 0.819 | 0.38 | 0.895 | 0.566 | 0.704 | 0.69
C[C@@H](c1ccc2nccn2c1)n1nnc2ncc(-c3cnn(C)c3)nc21 [Savolitinib] + CN(CC[C@H](CSC1=CC=CC=C1)NC2=C(C=C(C=C2)S(=O)(=O)NC(=O)C3=CC=C(C=C3)N4CCC(CC4)[C@H](C5=CC=CC=C5C6=CC=C(C=C6)Cl)O)S(=O)(=O)C(F)(F)F)CCO [AZD4320] (first compound max 1 µM, 7x7, partner max 1 µM) | – | 0.993 | – | 0.189 | 0.202 | 0.187 | – | 0.37 | 1 | – | 0.502 | – | 0.657 | – | 0.219 | – | 0.987 | – | 0.357 | –
COc1cc2c(cc1OCCCCCOc1cc3c(cc1OC)C(=O)N1C=C(C)C[C@H]1C=N3)N=C[C@@H]1CC(C)=CN1C2=O [SG3199] + O=C(c1cc(Cc2n[nH]c(=O)c3ccccc23)ccc1F)N1CCN(C(=O)C2CC2)CC1 [Olaparib] (first compound max 0.001 µM, 7x7, partner max 10 µM) | 0.198 | 0.249 | 0.435 | 0.232 | 0.209 | 0.0966 | 0.0885 | 0.099 | 0.591 | 0.173 | 0.173 | 0.155 | 0.228 | 0.107 | 0.358 | 0.0059 | 0.184 | 0.144 | 0.254 | 0.169
N#Cc1cnc(Nc2cc(NC[C@H]3CNCCO3)c(C(F)(F)F)cn2)cn1 [SRA737] + Nc1ccn([C@@H]2O[C@H](CO)[C@@H](O)C2(F)F)c(=O)n1 [Gemcitabine] (first compound max 10 µM, 7x7, partner max 0.3 µM) | 0.988 | – | 1 | – | 0.972 | – | 0.608 | – | – | 0.708 | – | 0.737 | – | 0.411 | – | 0.519 | – | 0.785 | – | 0.321
CN(CCO)CC[C@H](CSc1ccccc1)Nc1ccc(S(=O)(=O)NC(=O)c2ccc(N3CCC([C@@H](O)c4ccccc4-c4ccc(Cl)cc4)CC3)cc2)cc1S(=O)(=O)C(F)(F)F [AZD4320] + CC(=O)O[C@H]1C(=O)[C@@]2(C)[C@H]([C@H](OC(=O)c3ccccc3)[C@]3(O)C[C@H](OC(=O)[C@H](O)[C@@H](NC(=O)c4ccccc4)c4ccccc4)C(C)=C1C3(C)C)[C@]1(OC(C)=O)CO[C@@H]1C[C@@H]2O [Paclitaxel] (first compound max 1 µM, 7x7, partner max 3 µM) | 1 | – | 1 | – | 0.992 | – | 0.957 | – | – | 0.776 | – | 0.983 | – | 0.929 | – | 0.766 | – | 0.933 | – | 1
N#Cc1cnc(Nc2cc(NC[C@H]3CNCCO3)c(C(F)(F)F)cn2)cn1 [SRA737] + O=c1[nH]cc(F)c(=O)[nH]1 [5-Fluorouracil] (first compound max 10 µM, 7x7, partner max 20 µM) | 0.492 | – | 1 | – | 0.226 | – | 0.382 | – | – | 0.689 | – | 0.513 | – | 0.164 | – | 0.21 | – | 0.444 | – | 0.391
C=CCn1c(=O)c2cnc(Nc3ccc(N4CCN(C)CC4)cc3)nc2n1-c1cccc(C(C)(C)O)n1 [AZD1775] + C1CN(CCC1(C(=O)N[C@@H](CCO)C2=CC=C(C=C2)Cl)N)C3=NC=NC4=C3C=CN4 [Capivasertib] (first compound max 3 µM, partner max 3 µM) | 0.668 | 0.974 | 1 | 0.954 | 0.813 | 0.533 | 0.719 | 0.485 | 0.939 | 0.652 | 0.668 | 0.816 | 0.828 | 0.442 | – | 0.506 | 0.909 | 0.883 | – | 0.866
